Assay results published in publication PMC6321166, “Screening of a Library of Oligosaccharides Targeting Lectin LecB of Pseudomonas Aeruginosa and Synthesis of High Affinity Oligoglycoclusters” (Molecules, 2018).

Columns and labels:
LecB (PAO1) = target: T1, LecB (PAO1) (Pseudomonas aeruginosa, UniProt Q9HYN5); experiment: Competitive assay on microarray: glycans in solution compete with immobilized fucocluster F1 for Alexa 647-LecB; assay type: binding; parameters: key: A Grade A was given for oligosaccharides that were able to reduce 80 to 40% of the fluorescent signal at a concentration of 0.1 µM and to reduce it by more than 90% at concentrations of 1, 5 and 15 µM; Grade B indicated a decrease of fluorescence by 70% to 90% at 1 µM and more than 90% at 5 and 15 µM; Grade C corresponded to a decrease of 50 to 70% for 1 µM, around 80% for 5 µM and more than 90% at 15 µM; D indicated a decrease of less than 50% for 1 µM and 80% at 5 and 15 µM; When no inhibition was observed for the four concentrations tested, the grade was E; conditions: glycan at 0.1, 1.0, 5.0 and 15 µM, Alexa 647-LecB 0.12 µM
T1 construct: purchased Elicityl
Method: F1 was immobilized on a DNA chip, thanks to its DNA sequence. The distance between two F1 on the surface was estimated to be nearly 50 nm. Therefore, the lectin LecB can only bind to one F1 glycocluster at the time. The binding of immobilized F1 to LecB was competed with each of the 156 glycans at four different concentrations (0.1, 1.0, 5.0 and 15 µM). For each glycan and each concentration, the alexa 647-LecB fluorescent signal was recorded and averaged over 16 spots, leading to four-point competition histograms (Figure 2 and Figure S2). 100% signal (see Figure 2) corresponded to the fluorescent signal measured with a reference assay under which no competition could occur. Glycans able to compete with F1 to bind LecB lead to a decrease of the fluorescent signal. Therefore, for a given glycan concentration, strong binding glycans lead to stronger decrease of the fluorescent signal so to lower percentages. Accordingly, tested glycans were classified qualitatively into 5 groups (A, B, C, D and E) depending to their ability to reduce the measured fluorescent signal at the four different concentrations (Figure 2 and Table 1). Grade A are stronger competitor than grade B which are stronger than grade C, and so on. A Grade A was given for oligosaccharides that were able to reduce 80 to 40% of the fluorescent signal at a concentration of 0.1 µM and to reduce it by more than 90% at concentrations of 1, 5 and 15 µM. Grade B indicated a decrease of fluorescence by 70% to 90% at 1 µM and more than 90% at 5 and 15 µM. Grade C corresponded to a decrease of 50 to 70% for 1 µM, around 80% for 5 µM and more than 90% at 15 µM. D indicated a decrease of less than 50% for 1 µM and 80% at 5 and 15 µM.
Cy3-oligonucleotide oligoglycoclusters F1 [46] […] In each microwell, 1.5 µL of the oligoglycocluster mixture was incubated for DNA-directed immobilization (DDI) for 3 h at 37 °C in a water-saturated atmosphere. The slides were washed with saline sodium citrate (SSC) 2× SDS 0.1% at 51 °C for 1 min, SSC 2× for 5 min and rinsed with water.
A library of 156 sugars extracted from biomass or produced by bacterial fermentation (see Supporting Information) issued from the OligoTech® (Elicityl) was screened in a competitive assay. The binding of the 156 carbohydrates was screened toward the lectin LecB (PAO1, Elicityl). Lectin was labeled as previously described using the Alexa Fluor® 647 Microscale Protein Labelling Kit (Invitrogen).
On each slide, nine oligosaccharides and α-L-fucose (as a control) were tested. The inhibitory effect of each oligosaccharide was determined at four concentrations 0.1, 1.0, 5.0 and 15 µM and at 0.5, 2.5, 5.0 and 7.5 mg/L for polymers: Aliginate, galacturonan, galactomannan, glucomannan, mannan, ulvan, xylan and the glucan. To this end, the labeled LecB lectin (0.12 µM final concentration), BSA (2%, final concentration), CaCl2 (7.5 µM, final concentration) in PBS 1× (pH 7.4) were mixed with the solutions of oligosaccharides (from the OligoTech®, Crolles, France). For each concentration, 1.5 µL of the mixture was poured into a microwell, where F1 was previously immobilized. The slides were incubated for 3 h at 37 °C in a water-saturated atmosphere. In each microwell, a competition between the two types of glycoclusters (F1) and oligosaccharide occurred to bind LecB. The microarrays were washed with 0.02% PBS-Tween20 for 5 min at room temperature. The fluorescence signal emitted by the complex glycocluster/Alexa 647-lectin was detected and an average of the mean fluorescence signal of 16 spots per glycocluster was calculated. The percentage of inhibition was calculated as follows: The alexa-647 fluorescent signal for a given sugar was normalized by the Alexa 647 fluorescent signal measured at 0.1 µM of fucose.

LecB = LecB (Pseudomonas aeruginosa, UniProt Q9HYN5); conditions: cited from earlier work
LecB from PA14 = target: LecB from PA14; parameters: method as in PMID 30155149; conditions: read-out: dissociation constant (Kd); cited from earlier work
LecB from PA7 = target: LecB from PA7; parameters: method as in PMID 27303392; conditions: read-out: dissociation constant (Kd); cited from earlier work
LecB from PAO1 = conditions: read-out: dissociation constant (Kd); cited from earlier work

Chain of LecB (Q9HYN5 entry or part of it): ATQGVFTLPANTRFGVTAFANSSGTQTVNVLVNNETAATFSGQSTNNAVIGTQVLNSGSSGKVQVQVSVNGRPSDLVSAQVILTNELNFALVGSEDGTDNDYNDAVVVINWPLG
T1 sequence (Q9HYN5 entry or part of it): as above

Molecule | Grade (ability to reduce the F1/LecB fluorescent signal) (LecB (PAO1)) | also measured
Fucα1-2Galβ1-3(Fucα1-4)GlcNAcβ1-3Gal [Id. 32] | C (Grade C corresponded to a decrease of 50 to 70% for 1 µM, around 80% for 5 µM and more than 90% at 15 µM) | 
O=C[C@H](O)[C@@H](O)[C@@H](O)[C@H](O)CO [D-galactose] |  | recognition by LecB (LecB): not recognized
Galβ1-4(Fucα1-3)Glc [Id. 33] | B (Grade B indicated a decrease of fluorescence by 70% to 90% at 1 µM and more than 90% at 5 and 15 µM) | 
GalNAcα1-3(Fucα1-2)Gal [Id. 15] | D (D indicated a decrease of less than 50% for 1 µM and 80% at 5 and 15 µM) | 
OC[C@H]1OC(O)[C@@H](O)[C@@H](O)[C@@H]1O (stereo partly drawn) [D-mannose] |  | interaction with LecB, times weaker than L-fucose (LecB): 25 times
CO[C@@H]1O[C@@H](C)[C@@H](O)[C@@H](O)[C@@H]1O [FucOMe] |  | Kd (LecB from PA14): 200 nM; Kd (LecB from PA7): 2200 nM; Kd (LecB from PAO1): 430 nM
Neu5Acα2-3Galβ1-4(Fucα1-3)GlcNAcβ1-3Gal [Id. 29] | C (Grade C corresponded to a decrease of 50 to 70% for 1 µM, around 80% for 5 µM and more than 90% at 15 µM) | 
CC(=O)N[C@H]1[C@H](O[C@H]2[C@@H](O)[C@@H](CO)OC(O)[C@@H]2O)O[C@H](CO)[C@@H](O[C@@H]2O[C@H](CO)[C@H](O)[C@H](O)[C@H]2O)[C@@H]1O[C@@H]1O[C@@H](C)[C@@H](O)[C@@H](O)[C@@H]1O (stereo partly shown) [Id. 26, Galβ1-4(Fucα1-3)GlcNAcβ1-3Gal] | C (Grade C corresponded to a decrease of 50 to 70% for 1 µM, around 80% for 5 µM and more than 90% at 15 µM) | 
CC(=O)N[C@H]1[C@H](O[C@H]2[C@@H](O)[C@@H](CO)OC(O)[C@@H]2O)O[C@H](CO)[C@@H](O[C@@H]2O[C@@H](C)[C@@H](O)[C@@H](O)[C@@H]2O)[C@@H]1O[C@@H]1O[C@H](CO)[C@H](O)[C@H](O)[C@H]1O (stereo partly shown) [Id. 30, Galβ1-3(Fucα1-4)GlcNAcβ1-3Gal] | A (A Grade A was given for oligosaccharides that were able to reduce 80 to 40% of the fluorescent signal at a concentration of 0.1 µM and to reduce it by more than 90% at concentrations of 1, 5 and 15 µM) | 
Nc1ccc(S(N)(=O)=O)cc1 [sulfonamide] |  | Kd (LecB; inhibitors of LecB): 3.3 µM
Galα1-3(Galβ1-4GlcNAcβ1-3)2Galβ1-4Glc [Id. 45] | E | 
